Laboratory results published in patent publication US9505726B2, “Substituted biphenyl amides as P2X3 and P2X2/3 antagonists” (Roche Palo Alto LLC, priority 2009, dated 2016).

Biological target: T1, rat P2X3 receptor (Rattus norvegicus, UniProt P49654)
T1 construct: expressed in transfected cells; host or cells: CHO-K1
T1 sequence (P49654 1-397): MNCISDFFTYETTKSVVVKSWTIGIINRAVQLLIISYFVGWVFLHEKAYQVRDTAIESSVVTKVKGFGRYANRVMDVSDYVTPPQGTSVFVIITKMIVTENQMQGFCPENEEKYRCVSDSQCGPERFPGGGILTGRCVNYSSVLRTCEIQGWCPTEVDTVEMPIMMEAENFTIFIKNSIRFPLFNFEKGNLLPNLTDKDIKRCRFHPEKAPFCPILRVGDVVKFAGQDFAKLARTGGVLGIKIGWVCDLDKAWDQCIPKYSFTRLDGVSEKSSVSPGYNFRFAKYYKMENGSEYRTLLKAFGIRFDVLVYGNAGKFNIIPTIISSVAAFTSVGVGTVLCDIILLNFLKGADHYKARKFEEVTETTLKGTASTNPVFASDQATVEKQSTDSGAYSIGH
Test: P2X3 FLIPR (Fluorometric Imaging Plate Reader) assay
Format: cell-based
Conditions: CHO-K1 cells transfected with cloned rat P2X3, agonist α,β-meATP 1 μM, Fluo-3 AM calcium fluorescence
Procedure: CHO-K1 cells were transfected with cloned rat P2X3 or human P2X2/3 receptor subunits and passaged in flasks. 18-24 hours before the FLIPR experiment, cells were released from their flasks, centrifuged, and resuspended in nutrient medium at 2.5×10^5 cells/ml. The cells were aliquoted into black-walled 96-well plates at a density of 50,000 cells/well and incubated overnight in 5% CO2 at 37° C. On the day of the experiment, cells were washed in FLIPR buffer (calcium- and magnesium-free Hank's balanced salt solution, 10 mM HEPES, 2 mM CaCl2, 2.5 mM probenecid; FB). Each well received 100 μl FB and 100 μl of the fluorescent dye Fluo-3 AM [2 μM final conc.]. After a 1 hour dye loading incubation at 37° C., the cells were washed 4 times with FB, and a final 75 μl/well FB was left in each well.
Test compounds (dissolved in DMSO at 10 mM and serially diluted with FB) or vehicle were added to each well (25 μl of a 4× solution) and allowed to equilibrate for 20 minutes at room temperature. The plates were then placed in the FLIPR and a baseline fluorescence measurement (excitation at 488 nm and emission at 510-570 nm) was obtained for 10 seconds before a 100 μl/well agonist or vehicle addition. The agonist was a 2X solution of α,β-meATP producing a final concentration of 1 μM (P2X3) or 5 μM (P2X2/3). Fluorescence was measured for an additional 2 minutes at 1 second intervals after agonist addition. A final addition of ionomycin (5 μM, final concentration) was made to each well of the FLIPR test plate to establish cell viability and maximum fluorescence of dye-bound cytosolic calcium. Peak fluorescence in response to the addition of α,β-meATP (in the absence and presence of test compounds) was measured and inhibition curves generated using nonlinear regression. PPADS, a standard P2X antagonist, was used as a positive control.

Row | Structure (SMILES) | P2X3 (pIC50 values for the P2X3 receptor) | IC50 (read-out: P2X3 (pIC50 values for the P2X3 receptor) (converted)) [nM]
1 | CCN(C(=O)c1ccncc1)c1cc(C(=O)NC(C)COC)cc(-c2ccc(C)cc2)c1 (stereo not drawn) [Compound 28, N-Ethyl-N-[5-(2-methoxy-1-methyl-ethylcarbamoyl)-4′-methyl-biphenyl-3-yl]-isonicotinamide] | 5.4 | –
2 | CCN(C(=O)CC(C)C)c1cc(C(=O)NC(C)c2cnccn2)cc(-c2ccc(C)cc2)c1 (stereo not drawn) [Compound 29, 5-[Ethyl-(3-methyl-butyryl)-amino]-4′-methyl-biphenyl-3-carboxylic acid (1-pyrazin-2-yl-ethyl)-amide] | 7.38 | –
3 | CCN(C(=O)CC(C)C)c1cc(C(=O)NC(C)CO)cc(-c2ccc(C)cc2)c1 (stereo not drawn) [Compound 30, 5-[Ethyl-(3-methyl-butyryl)-amino]-4′-methyl-biphenyl-3-carboxylic acid (2-hydroxy-1-methyl-ethyl)-amide] | 7.33 | –
4 | CCN(C(=O)c1cccnc1)c1cc(C(=O)NC(C)c2cnccn2)cc(-c2ccc(C)cc2)c1 (stereo not drawn) [Compound 31, N-Ethyl-N-[4′-methyl-5-(1-pyrazin-2-yl-ethylcarbamoyl)-biphenyl-3-yl]-nicotinamide] | 5.91 | –
5 | Cc1ccc(-c2cc(C(=O)NC(C)c3cnccn3)cc(N(C)C(=O)C(C)(C)C)c2)cc1 (stereo not drawn) [Compound 32, 5-[(2,2-Dimethyl-propionyl)-methyl-amino]-4′-methyl-biphenyl-3-carboxylic acid (1-pyrazin-2-yl-ethyl)-amide] | 8.01 | –
6 | Cc1ccc(-c2cc(C(=O)NC(C)c3cnccn3)cc(N(C)C(=O)C(C)C)c2)cc1 (stereo not drawn) [Compound 33, 5-(Isobutyryl-methyl-amino)-4′-methyl-biphenyl-3-carboxylic acid (1-pyrazin-2-yl-ethyl)-amide] | 8.3 | –
7 | Cc1ccc(-c2cc(C(=O)NC(C)c3cnccn3)cc(N(C)C(=O)C3CC3)c2)cc1 (stereo not drawn) [Compound 34, 5-(Cyclopropanecarbonyl-methyl-amino)-4′-methyl-biphenyl-3-carboxylic acid (1-pyrazin-2-yl-ethyl)-amide] | – | 10.7
8 | CCN(C(=O)OCC(C)C)c1cc(C(=O)NC(C)c2cnccn2)cc(-c2ccc(C)cc2)c1 (stereo not drawn) [Compound 35, Ethyl-[4′-methyl-5-(1-pyrazin-2-yl-ethylcarbamoyl)-biphenyl-3-yl]-carbamic acid isobutyl ester] | 6.82 | –
9 | Cc1ccc(-c2cc(C(=O)NC(C)c3cnccn3)cc(N(C)C(=O)c3snnc3C)c2)cc1 (stereo not drawn) [Compound 36, 4-Methyl-[1,2,3]thiadiazole-5-carboxylic acid methyl-[4′-methyl-5-(1-pyrazin-2-yl-ethylcarbamoyl)-biphenyl-3-yl]-amide] | 5.3 | –
10 | CCN(C(=O)C(C)C)c1cc(C(=O)NC(C)c2cnccn2)cc(-c2ccc(C)cc2)c1 (stereo not drawn) [Compound 38, 5-(Ethyl-isobutyryl-amino)-4′-mcthyl-biphenyl-3-carboxylic acid (1-pyrazin-2-yl-ethyl)-amide] | 8.11 | –
11 | CCN(C(=O)OC)c1cc(C(=O)NC(C)c2cnccn2)cc(-c2ccc(C)cc2)c1 (stereo not drawn) [Compound 39, Ethyl-[4′-methyl-5-(1-pyrazin-2-yl-ethylcarbamoyl)-biphenyl-3-yl]-carbamic acid methyl ester] | 7.28 | –
12 | Cc1ccc(-c2cc(C(=O)N[C@@H](C)CO)cc(N(C)C(=O)C(C)C)c2)cc1 [Compound 40, 5-(Isobutyryl-methyl-amino)-4′-methyl-biphenyl-3-carboxylic acid ((S)-2-hydroxy-1-methyl-ethyl)-amide] | 8.3 | –
13 | CCN(C(=O)C1CCOCC1)c1cc(C(=O)NC(C)c2cnccn2)cc(-c2ccc(C)cc2)c1 (stereo not drawn) [Compound 41, Tetrahydro-pyran-4-carboxylic acid ethyl-[4′-methyl-5-(1-pyrazin-2-yl-ethylcarbamoyl)-biphenyl-3-yl]-amide] | 6.86 | –
14 | Cc1ccc(-c2cc(NC(=O)C(C)C)cc(C(=O)NC(C)c3cnccn3)c2)cc1 (stereo not drawn) [Compound 42, 5-Isobutyrylamino-4′-methyl-biphenyl-3-carboxylic acid (1-pyrazin-2-yl-ethyl)-amide] | 5.53 | –
15 | Cc1ccc(-c2cc(C(=O)NC(C)c3cnccn3)cc(N(C)C(=O)C3CCOCC3)c2)cc1 (stereo not drawn) [Compound 43, Tetrahydro-pyran-4-carboxylic acid methyl-[4′-methyl-5-(1-pyrazin-2-yl-ethylcarbamoyl)-biphenyl-3-yl]-amide] | 5.86 | –
16 | CC(NC(=O)c1cc(-c2ccc(Cl)cc2)cc(N(C)C(=O)N2CCOCC2)c1)c1cnccn1 (stereo not drawn) [Compound 44, Morpholine-4-carboxylic acid [4′-chloro-5-(1-pyrazin-2-yl-ethylcarbamoyl)-biphenyl-3-yl]-methyl-amide] | 5.17 | –
17 | CCNC(=O)N(C)c1cc(C(=O)NC(C)c2cnccn2)cc(-c2ccc(Cl)cc2)c1 (stereo not drawn) [Compound 45, 4′-Chloro-5-(3-ethyl-1-methyl-ureido)-biphenyl-3-carboxylic acid (1-pyrazin-2-yl-ethyl)-amide] | 5.38 | –
18 | CCC(C)C(=O)N(C)c1cc(C(=O)NC(C)c2cnccn2)cc(-c2ccc(C)cc2)c1 (stereo not drawn) [Compound 46, 4′-Methyl-5-[methyl-(2-methyl-butyryl)-amino]-biphenyl-3-carboxylic acid (1-pyrazin-2-yl-ethyl)-amide] | 8.04 | –
19 | CCC(C)(C)C(=O)N(C)c1cc(C(=O)NC(C)c2cnccn2)cc(-c2ccc(C)cc2)c1 (stereo not drawn) [Compound 48, 5-[(2,2-Dimethyl-butyryl)-methyl-amino]-4′-methyl-biphenyl-3-carboxylic acid (1-pyrazin-2-yl-ethyl)-amide] | 7.55 | –
20 | CCN(C(=O)C(C)C)c1cc(C(=O)N[C@@H](C)CO)cc(-c2ccc(C)cc2)c1 [Compound 49, 5-(Ethyl-isobutyryl-amino)-4′-methyl-biphenyl-3-carboxylic acid ((S)-2-hydroxy-1-methyl-ethyl)-amide] | 8.38 | –
21 | Cc1ccc(-c2cc(C(=O)N[C@@H](C)CO)cc(N(C)C(=O)C3CCCC3)c2)cc1 [Compound 50, 5-(Cyclopentanecarbonyl-methyl-amino)-4′-methyl-biphenyl-3-carboxylic acid ((S)-2-hydroxy-1-methyl-ethyl)-amide] | 7.85 | –
22 | Cc1ccc(-c2cc(C(=O)NC(C)c3cnccn3)cc(N(C)C(=O)C3CCCC3)c2)cc1 (stereo not drawn) [Compound 51, 5-(Cyclopentanecarbonyl-methyl-amino)-4′-methyl-biphenyl-3-carboxylic acid (1-pyrazin-2-yl-ethyl)-amide] | 7.57 | –
23 | Cc1ccc(-c2cc(C(=O)NC(C)c3cnccn3)cc(N(C)C(=O)C3CCCCC3)c2)cc1 (stereo not drawn) [Compound 52, 5-(Cyclohexanecarbonyl-methyl-amino)-4′-methyl-biphenyl-3-carboxylic acid (1-pyrazin-2-yl-ethyl)-amide] | 5.9 | –
24 | CCC(C)C(=O)N(C)c1cc(C(=O)N[C@@H](C)CO)cc(-c2ccc(C)cc2)c1 (stereo partly drawn) [Compound 53, 4′-Methyl-5-[methyl-(2-methyl-butyryl)-amino]-biphenyl-3-carboxylic acid ((S)-2-hydroxy-1-methyl-ethyl)-amide] | 7.37 | –
25 | Cc1ccc(-c2cc(C(=O)NC(C)c3cnccn3)cc(N(C)C(=O)C(C)C)c2)c(Cl)c1 (stereo not drawn) [Compound 54, 2′-Chloro-5-(isobutyryl-methyl-amino)-4′-methyl-biphenyl-3-carboxylic acid (1-pyrazin-2-yl-ethyl)-amide] | 6.29 | –
26 | Cc1ccc(-c2cc(C(=O)N[C@@H](C)CO)cc(N(C)C(=O)C(C)C)c2)c(Cl)c1 [Compound 55, 2′-Chloro-5-(isobutyryl-methyl-amino)-4′-methyl-biphenyl-3-carboxylic acid ((S)-2-hydroxy-1-methyl-ethyl)-amide] | 5.53 | –
27 | Cc1ccc(-c2cc(C(=O)NCc3cnccn3)cc(N(C)C(=O)C(C)C)c2)c(Cl)c1 [Compound 56, 2′-Chloro-5-(isobutyryl-methyl-amino)-4′-methyl-biphenyl-3-carboxylic acid (pyrazin-2-ylmethyl)-amide] | 5.6 | –
